Source: ChEMBL document CHEMBL1133175, “QSAR analysis of Delta(8)-THC analogues: relationship of side-chain conformation to cannabinoid receptor affinity and pharmacological potency” (J Med Chem, 2000)

Legend:
Cannabinoid receptor 1 [1] = biological target: T1, Cannabinoid receptor 1 (Homo sapiens, UniProt P21554); experiment: Binding affinity against Cannabinoid receptor 1.
Cannabinoid receptor 1 [2] = biological target: T1, Cannabinoid receptor 1; experiment: Tested for binding affinity against Cannabinoid receptor 1 (CB1).
Cannabinoid receptor 1 [3] = biological target: T1, Cannabinoid receptor 1; experiment: Tested for binding affinity against Cannabinoid receptor 1 (CB1)

T1 sequence (P21554 whole entry): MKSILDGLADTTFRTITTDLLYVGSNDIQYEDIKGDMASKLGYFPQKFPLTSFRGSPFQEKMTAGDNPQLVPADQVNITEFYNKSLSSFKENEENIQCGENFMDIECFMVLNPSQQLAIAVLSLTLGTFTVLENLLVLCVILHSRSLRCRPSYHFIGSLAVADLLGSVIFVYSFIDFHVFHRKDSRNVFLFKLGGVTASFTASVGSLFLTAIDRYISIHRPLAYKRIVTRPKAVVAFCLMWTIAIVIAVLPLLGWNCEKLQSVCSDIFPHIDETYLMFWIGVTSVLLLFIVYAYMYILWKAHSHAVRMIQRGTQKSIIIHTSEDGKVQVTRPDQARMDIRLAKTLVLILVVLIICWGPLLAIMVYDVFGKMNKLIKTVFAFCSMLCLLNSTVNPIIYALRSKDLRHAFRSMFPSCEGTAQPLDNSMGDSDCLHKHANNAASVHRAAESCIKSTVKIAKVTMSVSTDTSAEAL

For `CC1=CCC2C(C1)c1c(O)cccc1OC2(C)C` (stereo not given), the Kd (Cannabinoid receptor 1 [1]) was 0.045 µM.

In the case of `CC(=O)NCCC#CCc1cc(O)c2c(c1)OC(C)(C)C1CC=C(C)CC21` (stereo not given), the Kd (Cannabinoid receptor 1 [2]) is reported as 0.307 µM.

Work on `CC1=CCC2C(C1)c1c(O)cc(C#CCCCC#N)cc1OC2(C)C` (stereo not given) yielded a Kd (Cannabinoid receptor 1 [1]) of 0.104 µM.

Molecule `CC1=CCC2C(C1)c1c(O)cc(CC#CCCC#N)cc1OC2(C)C` (stereo not given) has a Kd (Cannabinoid receptor 1 [1]) of 0.031 µM.

`CCCC#CCc1cc(O)c2c(c1)OC(C)(C)C1CC=C(C)CC21` (stereo not given) showed a Kd (Cannabinoid receptor 1 [1]) of 0.011 µM.

With `CCCCCC#CCc1cc(OC)c2c(c1)OC(C)(C)C1CC=C(C)CC21` (stereo not given) the Kd (Cannabinoid receptor 1 [1]) was 0.189 µM.

`CC1=CCC2C(C1)c1c(O)cc(C/C=C/CCCC[N+](=O)[O-])cc1OC2(C)C` (stereo not given) gave a Kd (Cannabinoid receptor 1 [2]) of 0.00356 µM.

With `CC1=CCC2C(C1)c1c(O)cc(C/C=C/CCCC#N)cc1OC2(C)C` (stereo in doubt; 29) the Kd (Cannabinoid receptor 1 [1]) was 0.00077 µM.

`CCCCC/C=C/c1cc(O)c2c(c1)OC(C)(C)C1CC=C(C)CC21` (stereo not given) gave a Kd (Cannabinoid receptor 1 [1]) of 0.00086 µM.

With `C#CCCc1cc(O)c2c(c1)OC(C)(C)C1CC=C(C)CC21` (stereo not given) the Kd (Cannabinoid receptor 1 [1]) was 0.367 µM.

`CC(=O)NCCC/C=C/Cc1cc(O)c2c(c1)OC(C)(C)C1CC=C(C)CC21` (stereo not given) showed a Kd (Cannabinoid receptor 1 [2]) of 0.0167 µM.

`CCCC#CCCCc1cc(O)c2c(c1)OC(C)(C)C1CC=C(C)CC21` (stereo not given) showed a Kd (Cannabinoid receptor 1 [1]) of 0.019 µM.

`CCCCCCC(C)(C)c1cc(O)c2c(c1)OC(C)(C)C1CC=C(C)CC21` (stereo not given) was tested, and the Kd (Cannabinoid receptor 1 [2]) was 0.00077 µM.

In the case of `CCCC/C=C/CCc1cc(O)c2c(c1)OC(C)(C)C1CC=C(C)CC21` (stereo not given), the Kd (Cannabinoid receptor 1 [1]) is reported as 0.00336 µM.

`C#CCCCC#CCc1cc(O)c2c(c1)OC(C)(C)C1CC=C(C)CC21` (stereo not given) was tested, and the Kd (Cannabinoid receptor 1 [3]) was 0.0047 µM.

`CC1=CCC2C(C1)c1c(O)cc(C/C=C/CCCF)cc1OC2(C)C` (stereo not given) gave a Kd (Cannabinoid receptor 1 [2]) of 0.0209 µM.

`COC(=O)C#CCc1cc(O)c2c(c1)OC(C)(C)C1CC=C(C)CC21` (stereo not given) gave a Kd (Cannabinoid receptor 1 [1]) of 0.731 µM.

In the case of `CCCCCCC#CCc1cc(O)c2c(c1)OC(C)(C)C1CC=C(C)CC21` (stereo not given), the Kd (Cannabinoid receptor 1 [1]) is reported as 0.0037 µM.

`CC1=CCC2C(C1)c1c(O)cc(CC#CCCC[N+](=O)[O-])cc1OC2(C)C` (stereo not given) was tested, and the Kd (Cannabinoid receptor 1 [1]) was 0.00534 µM.

`CC1=CCC2C(C1)c1c(O)cc(CC#CCCO)cc1OC2(C)C` (stereo not given) was tested, and the Kd (Cannabinoid receptor 1 [2]) was 0.448 µM.

Molecule `CCCCC#CCCc1cc(O)c2c(c1)OC(C)(C)C1CC=C(C)CC21` (stereo not given) has a Kd (Cannabinoid receptor 1 [1]) of 0.009 µM.

In the case of `CCCCCC#CCc1cc(O)c2c(c1)OC(C)(C)C1CC=C(C)CC21` (stereo not given), the Kd (Cannabinoid receptor 1 [3]) is reported as 0.0049 µM.

`CC1=CCC2C(C1)c1c(O)cc(CC#CCCCBr)cc1OC2(C)C` (stereo not given) was tested, and the Kd (Cannabinoid receptor 1 [1]) was 0.0012 µM.

For `C#CCCCC#Cc1cc(O)c2c(c1)OC(C)(C)C1CC=C(C)CC21` (stereo not given), the Kd (Cannabinoid receptor 1 [1]) was 0.46 µM.

`COC(=O)C#CCCc1cc(O)c2c(c1)OC(C)(C)C1CC=C(C)CC21` (stereo not given) showed a Kd (Cannabinoid receptor 1 [1]) greater than 10 µM.

For `COCCC/C=C/Cc1cc(O)c2c(c1)OC(C)(C)C1CC=C(C)CC21` (stereo not given), the Kd (Cannabinoid receptor 1 [2]) was 0.0115 µM.

In the case of `CC1=CCC2C(C1)c1c(O)cc(C/C=C/CCCC#N)cc1OC2(C)C` (stereo in doubt; 30), the Kd (Cannabinoid receptor 1 [1]) is reported as 0.00125 µM.

`CCCCCC#Cc1cc(O)c2c(c1)OC(C)(C)C1CC=C(C)CC21` (stereo not given) was tested, and the Kd (Cannabinoid receptor 1 [2]) was 0.036 µM.

`CC1=CCC2C(C1)c1c(O)cc(C=C=CCCCC(=O)O)cc1OC2(C)C` (stereo not given) was tested, and the Kd (Cannabinoid receptor 1 [1]) was 3.17 µM.

Work on `CCCCC/C=C/Cc1cc(O)c2c(c1)OC(C)(C)C1CC=C(C)CC21` (stereo not given) yielded a Kd (Cannabinoid receptor 1 [1]) of 0.00319 µM.

`CC1=CCC2C(C1)c1c(O)cc(CC#CC(C)Br)cc1OC2(C)C` (stereo not given) was tested, and the Kd (Cannabinoid receptor 1 [2]) was 0.025 µM.

`CCC/C=C/CCCc1cc(O)c2c(c1)OC(C)(C)C1CC=C(C)CC21` (stereo not given) was tested, and the Kd (Cannabinoid receptor 1 [1]) was 0.011 µM.

With `CC1=CCC2C(C1)c1c(O)cc(C/C=C/CCCO)cc1OC2(C)C` (stereo not given) the Kd (Cannabinoid receptor 1 [2]) was 0.0537 µM.

In the case of `CC1=CCC2C(C1)c1c(O)cc(C/C=C/CCCBr)cc1OC2(C)C` (stereo not given), the Kd (Cannabinoid receptor 1 [1]) is reported as 0.00166 µM.

Work on `CC1=CCC2C(C1)c1c(O)cc(CC#CCBr)cc1OC2(C)C` (stereo not given) yielded a Kd (Cannabinoid receptor 1 [1]) of 0.143 µM.
